Experimental data published in ChEMBL document CHEMBL4507276 (2021).

How the values were obtained:
[1] = molecular target: Calcium/calmodulin-dependent protein kinase kinase 1 (Homo sapiens) (UniProt Q8N5S9); experiment: CAMKK1 Invitrogen selectivity data (BI); settings: Compound concentration 3.0 uM
[2] = molecular target: T1, Dual specificity mitogen-activated protein kinase kinase 6 (Homo sapiens) (UniProt P52564); experiment: MAP2K6 Invitrogen selectivity data (BI); settings: Compound concentration 3.0 uM
T1 sequence (whole entry): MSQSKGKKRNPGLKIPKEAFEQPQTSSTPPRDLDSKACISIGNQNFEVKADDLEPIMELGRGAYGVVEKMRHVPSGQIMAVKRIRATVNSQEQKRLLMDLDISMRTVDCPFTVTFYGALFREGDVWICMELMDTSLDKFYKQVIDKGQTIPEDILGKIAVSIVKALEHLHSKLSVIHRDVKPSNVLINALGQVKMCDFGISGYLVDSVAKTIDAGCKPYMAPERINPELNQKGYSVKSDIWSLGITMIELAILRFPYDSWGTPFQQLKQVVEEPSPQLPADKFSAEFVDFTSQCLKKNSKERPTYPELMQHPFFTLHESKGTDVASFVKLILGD

[3] = molecular target: Sodium channel regulatory subunit beta-1 (Rattus norvegicus) (UniProt Q00954); experiment: NA+/SITE2/RA Eurofins-Panlabs selectivity data (BI); settings: Compound concentration 10.0 uM
Sequence of Sodium channel regulatory subunit beta-1 (Rattus norvegicus) (Q00954 whole entry): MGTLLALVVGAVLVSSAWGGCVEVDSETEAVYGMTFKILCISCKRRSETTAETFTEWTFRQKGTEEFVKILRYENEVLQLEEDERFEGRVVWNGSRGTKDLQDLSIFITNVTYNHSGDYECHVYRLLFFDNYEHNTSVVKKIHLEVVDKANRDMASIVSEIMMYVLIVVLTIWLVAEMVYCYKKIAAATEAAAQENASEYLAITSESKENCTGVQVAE

[4] = molecular target: Calcium/calmodulin-dependent protein kinase type 1D (Homo sapiens) (UniProt Q8IU85); experiment: CAMK1D Invitrogen selectivity data (BI); settings: Compound concentration 3.0 uM
Sequence of Calcium/calmodulin-dependent protein kinase type 1D (Homo sapiens) (Q8IU85 whole entry, looked up): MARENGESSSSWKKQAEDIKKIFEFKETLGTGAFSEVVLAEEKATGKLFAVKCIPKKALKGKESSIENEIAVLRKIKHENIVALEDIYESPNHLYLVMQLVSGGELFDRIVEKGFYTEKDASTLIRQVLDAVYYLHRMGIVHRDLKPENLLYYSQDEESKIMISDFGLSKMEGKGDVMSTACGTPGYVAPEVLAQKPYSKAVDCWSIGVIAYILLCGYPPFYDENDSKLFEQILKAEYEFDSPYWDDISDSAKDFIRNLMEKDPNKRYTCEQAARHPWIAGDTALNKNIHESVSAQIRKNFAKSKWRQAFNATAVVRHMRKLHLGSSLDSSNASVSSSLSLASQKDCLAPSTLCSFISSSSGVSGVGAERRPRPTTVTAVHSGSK

[5] = molecular target: Angiotensin-converting enzyme 2 (Homo sapiens) (UniProt Q9BYF1); experiment: ACE-2(HU) Cerep selectivity data (BI); settings: Compound concentration 20.0 uM
Sequence of Angiotensin-converting enzyme 2 (Homo sapiens) (Q9BYF1 18-805 limits assumed): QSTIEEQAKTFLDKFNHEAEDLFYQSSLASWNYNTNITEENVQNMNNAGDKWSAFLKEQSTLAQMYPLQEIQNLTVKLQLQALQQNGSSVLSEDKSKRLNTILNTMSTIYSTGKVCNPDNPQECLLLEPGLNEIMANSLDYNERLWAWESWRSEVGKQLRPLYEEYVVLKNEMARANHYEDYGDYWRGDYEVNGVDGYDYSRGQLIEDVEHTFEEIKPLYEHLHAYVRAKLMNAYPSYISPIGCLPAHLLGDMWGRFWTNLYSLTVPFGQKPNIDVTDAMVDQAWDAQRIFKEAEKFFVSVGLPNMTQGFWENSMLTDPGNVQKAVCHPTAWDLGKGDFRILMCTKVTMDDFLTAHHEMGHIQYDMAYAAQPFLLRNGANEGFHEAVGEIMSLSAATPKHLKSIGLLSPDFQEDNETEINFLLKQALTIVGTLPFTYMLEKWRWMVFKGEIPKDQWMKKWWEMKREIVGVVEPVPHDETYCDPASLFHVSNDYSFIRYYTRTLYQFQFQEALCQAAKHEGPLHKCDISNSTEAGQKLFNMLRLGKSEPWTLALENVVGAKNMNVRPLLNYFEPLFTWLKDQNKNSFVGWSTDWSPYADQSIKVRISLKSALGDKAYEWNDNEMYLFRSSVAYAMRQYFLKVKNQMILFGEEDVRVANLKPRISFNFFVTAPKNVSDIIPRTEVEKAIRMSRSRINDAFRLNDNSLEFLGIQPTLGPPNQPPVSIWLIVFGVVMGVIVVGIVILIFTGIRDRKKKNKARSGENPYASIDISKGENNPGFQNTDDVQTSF

[6] = system: Proto-oncogene tyrosine-protein kinase receptor Ret (Homo sapiens), P07949 [V804L]; experiment: RET V804L Invitrogen selectivity data (BI); settings: Compound concentration 3.0 uM
Sequence of Proto-oncogene tyrosine-protein kinase receptor Ret (Homo sapiens), P07949 [V804L] (P07949 whole entry V804L): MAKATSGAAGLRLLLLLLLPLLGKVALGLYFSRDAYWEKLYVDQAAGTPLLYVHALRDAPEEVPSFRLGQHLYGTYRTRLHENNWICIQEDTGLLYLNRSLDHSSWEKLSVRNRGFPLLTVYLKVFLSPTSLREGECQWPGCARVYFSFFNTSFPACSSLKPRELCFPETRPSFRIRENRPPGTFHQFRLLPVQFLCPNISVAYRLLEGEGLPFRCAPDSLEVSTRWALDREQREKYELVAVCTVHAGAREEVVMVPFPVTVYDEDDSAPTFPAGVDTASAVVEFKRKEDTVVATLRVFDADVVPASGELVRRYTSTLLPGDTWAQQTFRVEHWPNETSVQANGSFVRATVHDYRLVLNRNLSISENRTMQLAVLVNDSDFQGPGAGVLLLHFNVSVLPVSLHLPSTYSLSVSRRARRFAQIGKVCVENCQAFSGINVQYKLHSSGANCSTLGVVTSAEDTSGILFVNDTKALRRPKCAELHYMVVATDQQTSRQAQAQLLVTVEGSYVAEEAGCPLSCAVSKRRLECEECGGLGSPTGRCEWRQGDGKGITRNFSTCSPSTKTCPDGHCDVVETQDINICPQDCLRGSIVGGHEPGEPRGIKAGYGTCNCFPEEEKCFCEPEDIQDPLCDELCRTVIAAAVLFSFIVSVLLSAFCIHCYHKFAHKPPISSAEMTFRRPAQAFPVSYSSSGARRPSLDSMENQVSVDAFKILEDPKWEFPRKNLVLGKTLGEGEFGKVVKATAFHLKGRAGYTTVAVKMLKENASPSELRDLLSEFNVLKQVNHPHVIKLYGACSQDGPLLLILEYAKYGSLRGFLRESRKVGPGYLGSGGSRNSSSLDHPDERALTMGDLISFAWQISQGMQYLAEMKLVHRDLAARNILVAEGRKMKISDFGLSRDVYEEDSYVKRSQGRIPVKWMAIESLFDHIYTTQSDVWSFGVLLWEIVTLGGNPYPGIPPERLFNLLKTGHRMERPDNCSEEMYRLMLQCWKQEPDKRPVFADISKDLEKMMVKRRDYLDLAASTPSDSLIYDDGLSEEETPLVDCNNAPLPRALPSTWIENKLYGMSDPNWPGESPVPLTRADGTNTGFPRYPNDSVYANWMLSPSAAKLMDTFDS

[7] = molecular target: T2, Mitogen-activated protein kinase 12 (Homo sapiens) (UniProt P53778); experiment: MAPK12 Invitrogen selectivity data (BI); settings: Compound concentration 3.0 uM
T2 sequence (whole entry): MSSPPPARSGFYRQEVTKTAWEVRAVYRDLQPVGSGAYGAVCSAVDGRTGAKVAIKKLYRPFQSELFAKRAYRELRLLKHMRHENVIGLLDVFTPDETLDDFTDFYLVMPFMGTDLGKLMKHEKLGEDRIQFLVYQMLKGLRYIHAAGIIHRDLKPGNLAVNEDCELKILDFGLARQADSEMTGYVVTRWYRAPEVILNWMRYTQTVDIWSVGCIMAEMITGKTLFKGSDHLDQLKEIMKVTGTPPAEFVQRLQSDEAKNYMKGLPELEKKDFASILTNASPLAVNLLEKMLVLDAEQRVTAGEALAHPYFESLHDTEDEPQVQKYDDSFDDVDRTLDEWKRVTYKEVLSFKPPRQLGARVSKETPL

[8] = molecular target: Alpha-1A adrenergic receptor (Rattus norvegicus) (UniProt P43140); experiment: ALPHA1A/R Eurofins-Panlabs selectivity data (BI); settings: Compound concentration 10.0 uM
Sequence of Alpha-1A adrenergic receptor (Rattus norvegicus) (P43140 whole entry, looked up): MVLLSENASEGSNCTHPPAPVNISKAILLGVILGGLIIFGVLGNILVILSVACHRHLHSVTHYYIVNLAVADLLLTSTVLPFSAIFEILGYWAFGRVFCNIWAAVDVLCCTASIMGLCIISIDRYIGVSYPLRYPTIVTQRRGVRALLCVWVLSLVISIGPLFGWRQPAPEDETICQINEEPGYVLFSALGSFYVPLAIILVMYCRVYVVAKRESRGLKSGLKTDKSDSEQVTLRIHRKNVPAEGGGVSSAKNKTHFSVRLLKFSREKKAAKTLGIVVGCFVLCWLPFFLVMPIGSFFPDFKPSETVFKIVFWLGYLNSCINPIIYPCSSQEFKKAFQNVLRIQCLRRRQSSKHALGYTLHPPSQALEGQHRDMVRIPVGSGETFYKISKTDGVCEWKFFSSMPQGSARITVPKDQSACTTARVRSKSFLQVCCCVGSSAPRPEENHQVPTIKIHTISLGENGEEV

[9] = molecular target: Adenosine receptor A2a (Homo sapiens) (UniProt P29274); experiment: A2A/HU Eurofins-Panlabs selectivity data (BI); settings: Compound concentration 10.0 uM
Sequence of Adenosine receptor A2a (Homo sapiens) (P29274 whole entry): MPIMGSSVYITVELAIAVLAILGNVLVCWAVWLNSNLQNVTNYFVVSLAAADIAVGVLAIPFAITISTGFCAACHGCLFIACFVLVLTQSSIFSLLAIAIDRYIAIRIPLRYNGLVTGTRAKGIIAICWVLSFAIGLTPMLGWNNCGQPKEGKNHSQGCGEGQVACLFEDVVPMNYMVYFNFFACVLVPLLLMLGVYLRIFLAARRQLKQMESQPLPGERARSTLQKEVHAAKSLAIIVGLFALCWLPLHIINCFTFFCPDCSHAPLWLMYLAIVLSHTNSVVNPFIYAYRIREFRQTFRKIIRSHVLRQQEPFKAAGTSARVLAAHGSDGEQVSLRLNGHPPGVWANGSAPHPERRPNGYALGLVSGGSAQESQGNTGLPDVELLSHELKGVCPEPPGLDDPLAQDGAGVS

[10] = molecular target: T3, Megakaryocyte-associated tyrosine-protein kinase (Homo sapiens) (UniProt P42679); experiment: MATK Invitrogen selectivity data (BI); settings: Compound concentration 3.0 uM
T3 sequence (whole entry): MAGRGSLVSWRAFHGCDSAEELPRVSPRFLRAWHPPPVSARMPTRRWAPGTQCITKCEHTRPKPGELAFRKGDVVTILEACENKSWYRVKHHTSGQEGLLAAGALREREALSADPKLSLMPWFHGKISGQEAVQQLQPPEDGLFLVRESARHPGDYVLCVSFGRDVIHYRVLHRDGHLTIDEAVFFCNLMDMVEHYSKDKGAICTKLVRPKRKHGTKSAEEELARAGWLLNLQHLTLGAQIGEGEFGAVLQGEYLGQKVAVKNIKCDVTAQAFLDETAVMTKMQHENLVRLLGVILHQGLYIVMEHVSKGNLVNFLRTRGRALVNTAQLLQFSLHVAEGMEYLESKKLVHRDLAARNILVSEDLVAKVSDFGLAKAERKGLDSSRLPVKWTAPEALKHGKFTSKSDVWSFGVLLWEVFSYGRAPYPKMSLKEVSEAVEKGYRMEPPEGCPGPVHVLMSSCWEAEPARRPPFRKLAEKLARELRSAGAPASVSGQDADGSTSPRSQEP

[11] = molecular target: T4, Serine/threonine-protein kinase NLK (Homo sapiens) (UniProt Q9UBE8); experiment: NLK Invitrogen selectivity data (BI); settings: Compound concentration 3.0 uM
T4 sequence (whole entry): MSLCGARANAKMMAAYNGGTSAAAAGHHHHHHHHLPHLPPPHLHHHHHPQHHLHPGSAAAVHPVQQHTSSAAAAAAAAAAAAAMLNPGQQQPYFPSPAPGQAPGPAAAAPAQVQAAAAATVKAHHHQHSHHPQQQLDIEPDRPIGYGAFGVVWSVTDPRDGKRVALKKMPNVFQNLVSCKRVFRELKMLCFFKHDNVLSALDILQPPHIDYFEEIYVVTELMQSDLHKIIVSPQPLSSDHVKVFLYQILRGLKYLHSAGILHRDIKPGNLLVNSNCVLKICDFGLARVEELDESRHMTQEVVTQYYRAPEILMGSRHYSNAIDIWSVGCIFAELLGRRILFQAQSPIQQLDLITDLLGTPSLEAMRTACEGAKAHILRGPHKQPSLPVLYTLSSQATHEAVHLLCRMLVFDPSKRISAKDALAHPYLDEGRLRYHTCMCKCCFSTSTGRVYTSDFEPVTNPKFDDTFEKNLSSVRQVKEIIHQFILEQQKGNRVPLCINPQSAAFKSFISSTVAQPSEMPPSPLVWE

[12] = molecular target: Serine/threonine-protein kinase PAK 1 (Homo sapiens) (UniProt Q13153); experiment: PAK1 Invitrogen selectivity data (BI); settings: Compound concentration 3.0 uM
Sequence of Serine/threonine-protein kinase PAK 1 (Homo sapiens) (Q13153 whole entry): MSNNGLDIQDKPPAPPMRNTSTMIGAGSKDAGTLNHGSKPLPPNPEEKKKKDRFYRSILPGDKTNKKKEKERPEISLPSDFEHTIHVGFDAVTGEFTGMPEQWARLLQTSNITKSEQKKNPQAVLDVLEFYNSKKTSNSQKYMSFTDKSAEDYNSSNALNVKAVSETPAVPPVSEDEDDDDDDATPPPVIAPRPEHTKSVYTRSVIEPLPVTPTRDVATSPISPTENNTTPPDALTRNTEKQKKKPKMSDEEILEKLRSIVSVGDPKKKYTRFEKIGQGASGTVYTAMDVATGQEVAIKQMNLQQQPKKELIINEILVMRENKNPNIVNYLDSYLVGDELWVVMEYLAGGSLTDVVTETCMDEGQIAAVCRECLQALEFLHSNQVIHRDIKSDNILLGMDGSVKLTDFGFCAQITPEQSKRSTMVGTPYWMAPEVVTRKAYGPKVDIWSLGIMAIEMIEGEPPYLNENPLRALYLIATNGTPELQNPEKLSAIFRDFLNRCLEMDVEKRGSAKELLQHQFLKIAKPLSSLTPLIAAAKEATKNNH

Measured: residual activity

Sequence of Calcium/calmodulin-dependent protein kinase kinase 1 (Homo sapiens) (Q8N5S9 whole entry, looked up): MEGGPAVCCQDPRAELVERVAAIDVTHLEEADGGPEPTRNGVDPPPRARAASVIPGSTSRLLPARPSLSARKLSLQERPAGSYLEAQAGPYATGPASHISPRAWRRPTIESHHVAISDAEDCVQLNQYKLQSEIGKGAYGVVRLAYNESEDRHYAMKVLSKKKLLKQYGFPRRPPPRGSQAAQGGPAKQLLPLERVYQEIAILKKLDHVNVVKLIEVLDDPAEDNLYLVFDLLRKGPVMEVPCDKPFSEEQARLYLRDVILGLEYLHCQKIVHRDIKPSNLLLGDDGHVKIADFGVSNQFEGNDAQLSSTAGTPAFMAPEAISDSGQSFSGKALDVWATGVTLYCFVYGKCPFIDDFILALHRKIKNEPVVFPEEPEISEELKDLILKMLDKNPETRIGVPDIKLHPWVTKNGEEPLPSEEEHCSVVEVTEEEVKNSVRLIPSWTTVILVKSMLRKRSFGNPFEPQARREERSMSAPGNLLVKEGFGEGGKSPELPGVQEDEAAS

CN(C)C(=O)Cn1cc(-c2nc([C@@](C)(c3ccc(-c4cnc(N)nc4)cc3)C3CC3)no2)cn1 [BI 665915]
inactive: [1] 102% | [2] 103% | [3] 84% | [4] 96% | [5] 132% | [6] 72% | [7] 91.5% | [8] 100% | [9] 105% | [10] 97.5% | [11] 93% | [12] 96%
